# Source: patent US20100040620A1, “ANTI-CANCER ANTIBODIES AGAINST LEWISy AND LEWISb ANTIGENS” (priority 2006, published 2010)
# Tested on: C170 xenografts
# Test: Prevention model, C170 xenografts
# Assay type: in vivo
# Conditions: SC101/29 0.2 mg ip 3 times weekly; 5-FU/leucovorin 12.5 mg/kg iv; days 12-23; p<0.004 ANOVA alone, p<0.02 combination
# Procedure: Prevention model. The colorectal tumour cell line, C170 was maintained in serial passage in nude mice. For therapy the mice were sacrificed and the tumours excised. The tumour was finely minced and 3 mm^2 pieces were implanted, under anaesthetic (Hypnorm, Roche/Hypnovel, Jannsen), subcutaneously, into 40 male mice which had been randomly allocated to 4 experimental groups. A group of mice were treated with 5-FU/leucovorin (12.5 mg/kg) by intravenous (iv) injection on days 1, 3, 5, 7, 21 and 22. Three times weekly mice were also injected intraperitoneally (ip) with 0.2 mg of SC101/29 mAb. Control mice received either SC101/29 mAb, 5-FU/leucovorin or vehicle alone. Tumour size was measured by callipers and tumour cross-sectional area calculated on days 12, 16, 19 and 23. At the termination of the experiment tumours were weighed to assess anti-tumour efficacy. Animals were weighed to assess the toxicity of treatment.
substance,measurement,value
5-FU/leucovorin,tumour growth of freshly explanted C170 tumours (cross-sectional area),inhibition of tumour growth
